Assay results published in patent US12448475B2, “Drug delivery compositions and applications thereof” (The University of North Carolina at Chapel Hill, priority 2019, dated 2025).
≈ marks a conversion by molar mass, not a printed value.

Tests used:
physchem = experiment: physchem
Text: (§1) (P2). The molecules examined belonged to different classes including transforming growth factor β (TGF-β) receptor inhibitors (LY2109761, GW788388 and LY364947), protein synthesis inhibitors (bruceantin), toll-like receptor (TLR) 7 agonist (imiquimod), phosphatidylinositol 3-kinase (PI3K) inhibitors (wortmannin and pictilisib (GDC-0941)), microtubule inhibitor (paclitaxel), and topoisomerase inhibitors (Aclacinomycin A and SN-38). […] Drugs were screened at various ratios, beginning at 1:10 (drug:polymer), and increased the ratio until maximal solubility was obtained.

[1] = Solubilization of poorly soluble drugs in PMeOx-PcBOx polymeric micelles; conditions: polymer 10 mg/ml
Text: as §1

[2] = DLS size distribution of API-loaded micelles, Example 8; format: physicochemical; conditions: PcBOx triblock (PMeOx-PcBOx-PMeOx) micelles
Procedure: (§2) Drug-encapsulated polymeric nanoparticle formulations were prepared by the thin film hydration method. For resiquimod, imiquimod, and RXDX-105, stock solutions of PMeOx-PcBOx-PMeOx and drugs in chloroform:methanol (9:1) solution were mixed together at the pre-determined ratios (8:10 drug to polymer w/w ratio (resiquimod), 2:10 w/w ratio (imiquimod), 4:10 w/w ratio (RXDX-105)). The organic solvent was evaporated at 58° C. under a stream of inert gas to form a thin-film of drug-polymer homogenous mixture. Next, the thin films were hydrated with saline and then incubated for 5-10 min to form drug-encapsulated polymeric micelle solutions. All samples were prepared with 1 mg of polymer and hydrated with 100 uL of saline. The formed micelle solutions were centrifuged at 10,000 rpm for 3 minutes (Sorvall Legend Micro 21R Centrifuge, Thermo Scientific) to remove any precipitate of unloaded drug or polymer. The final concentration of drugs in PMeOx-PcBOx-PMeOx micelles was analyzed by HPLC (Agilent Technologies 1200 series) using a mixture of acetonitrile/water (70%/30% v/v for Resiquimod and imiquimod; 50%/50% v/v for RXDX-105) as the mobile phase. The samples were diluted with mobile phase to final concentration of ˜100 μg/mL of drugs and injected (10 μL) into the HPLC system. The flow rate was 1.0 mL/min, and column temperature was 40° C. Detection wavelength was 254 nm. Drug concentration was quantified against free drug calibration curves. Particle z-average effective diameter and polydispersity index (PDI) were measured by dynamic light scattering (DLS) (Nano-ZS, Malvern Instruments, UK).

[3] = Loading capacity of API-loaded micelles (thin film hydration, HPLC), Example 8; format: physicochemical; conditions: PcBOx triblock (PMeOx-PcBOx-PMeOx) micelles, polymer 10 mg/ml
Procedure: as §2, with “The samples were diluted with mobile phase to final concentration of ˜100 μg/mL of drugs and injected (10 μL) into the HPLC system. The flow rate was 1.0 mL/min, and column temperature was 40° C. Detection wavelength was 254 nm.” left out, “UK). […]” for “UK).”

[4] = DLS size distribution of drug-loaded PMeOx-PcBOx micelle formulations; format: physicochemical; conditions: drug-loaded PMeOx-PcBOx micelle formulation
[5] = Release profile of encapsulated drugs from polymeric micelles; format: physicochemical; conditions: from P2, after 24 hours, 10:1 polymer:drug feeding ratio
Procedure: The release profile of encapsulated drugs (Paclitaxel and Bruceantin) in PMeOx-PcBOx was investigated. Both Paclitaxel and Bruceantin were continuously released from PMeOx-PcBOx nanoparticle, with over 80% of drugs being released at 24 hour time point (FIG. 5C). The release rates were similar for Bruceantin in both of the polymers. […] After 24 hours, most of the PTX was released in PcBOx whereas not even 50% was released from P2. This kind of release data is consistent with previously published data at this low (10:1) polymer:drug feeding ratio. Both paclitaxel and Bruceantin formulation in PMeOx-PcBOx were proven stable for 8 days at 4° C. as the drug loading and size distribution were monitored (FIGS. 5E and 5F).

SMILES: CS(=O)(=O)N1CCN(Cc2cc3nc(-c4cccc5[nH]ncc45)nc(N4CCOCC4)c3s2)CC1 [GDC-0941, pictilisib]
- solubilization (in words) (physchem): practically insoluble
- LC (maximum loading capacity) [1]: 4.3%

SMILES: O=C(NC1CCOCC1)c1ccc(-c2cc(-c3c[nH]nc3-c3ccccn3)ccn2)cc1 [GW788388]
- LC (maximum loading capacity) [1]: 0.2%

SMILES: CC(C)Cn1cnc2c(N)nc3ccccc3c21 [Imiquimod, imiquimod]
- solubilization (in words) (physchem): practically insoluble
- Deff [2]: 160 nm
- PDI [2]: 0.18
- LC (maximum loading capacity) [1]: undetectable
- LC (%) [3]: 14.1%

SMILES: c1ccc(-c2[nH]ncc2-c2ccnc3ccccc23)nc1 [LY364947]
- LC (maximum loading capacity) [1]: 0.3%

SMILES: c1ccc(-c2nn3c(c2-c2ccnc4cc(OCCN5CCOCC5)ccc24)CCC3)nc1 [LY2109761]
- LC (maximum loading capacity) (physchem; P2 micelles, polymer 10 mg/ml): 14.0%
- LE (loading efficiency) (physchem; P2 micelles, polymer 10 mg/ml): 78%
- maximal solubilized drug concentration (physchem; P2 micelles, polymer 10 mg/ml): 1.5 mg/mL
- Dv10 [4]: 15.5 nm
- Dv50 [4]: 21.5 nm
- Dv90 [4]: 34.8 nm
- PDI [4]: 0.4
- size in DLS measurement [4]: 50 nm
- LC (maximum loading capacity) [1]: 24.7%
- LE (loading efficiency) [1]: 82%
- maximal solubilized drug concentration [1]: ~3.28 mg/mL

SMILES: COc1cc2ncnc(Oc3cccc(NC(=O)Nc4cc(C(C)(C)C(F)(F)F)on4)c3)c2cc1OC [RXDX-105]
- Deff [2]: 112 nm
- PDI [2]: 0.30
- LC (%) [3]: 24.1%

SMILES: CCc1c2c(nc3ccc(O)cc13)-c1cc3c(c(=O)n1C2)COC(=O)[C@]3(O)CC [SN-38]
- LC (maximum loading capacity) [1]: undetectable

SMILES: CC[C@@]1(O)C[C@H](O[C@H]2C[C@H](N(C)C)[C@H](O[C@H]3C[C@H](O)[C@H](O[C@H]4CCC(=O)[C@H](C)O4)[C@H](C)O3)[C@H](C)O2)c2c(cc3c(c2O)C(=O)c2c(O)cccc2C3=O)[C@H]1C(=O)OC [aclacinomycin A, Aclacinomycin A]
- LC (maximum loading capacity) [1]: 6.8%

SMILES: CC(=O)O[C@H]1C(=O)[C@@]2(C)[C@H]([C@H](OC(=O)c3ccccc3)[C@]3(O)C[C@H](OC(=O)[C@H](O)[C@@H](NC(=O)c4ccccc4)c4ccccc4)C(C)=C1C3(C)C)[C@]1(OC(C)=O)CO[C@@H]1C[C@@H]2O [paclitaxel]
- LC (maximum loading capacity) (physchem; P2 micelles, polymer 10 mg/ml): 41%
- LE (loading efficiency) (physchem; P2 micelles, polymer 10 mg/ml): 86%
- solubility (physchem; aqueous with cosolvent or surfactant or cyclodextrin): 6890 µg/mL (≈ 8.07 mM)
- drug released [5]: < 50%
- Dv10 [4]: 23.3 nm
- Dv50 [4]: 34.6 nm
- Dv90 [4]: 80.9 nm
- PDI [4]: 0.298
- size in DLS measurement [4]: 85 nm
- LC (maximum loading capacity) [1]: 6.3%
